Measurements from PubChem BioAssay (NCI).
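Method: 48-hour compound exposure of cells in 96-well plates, five concentrations, linear interpolation of endpoints. Here, GI50 denotes the concentration required for 50% inhibition of growth. TGI: concentration producing complete growth inhibition.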

How the values were obtained:
Assay in all cases: growth of human tumour cells (NCI), 48 h
K-562 leukemia = tested on: K-562 leukemia
PC-3 prostate = tested on: PC-3 prostate
OVCAR-4 ovarian = tested on: OVCAR-4 ovarian
786-0 renal = tested on: 786-0 renal
MDA-MB-435 = tested on: MDA-MB-435

Structure (SMILES)	GI50 (K-562 leukemia) [nM]	TGI (K-562 leukemia) [µM]	GI50 (PC-3 prostate) [µM]	TGI (PC-3 prostate) [µM]	GI50 (OVCAR-4 ovarian) [nM]	TGI (OVCAR-4 ovarian) [µM]	GI50 (786-0 renal) [µM]	TGI (786-0 renal) [µM]	GI50 (MDA-MB-435) [nM]	TGI (MDA-MB-435) [µM]
CCn1cnc2c(Nc3cccc(Cl)c3)nc(N[C@@H]3CCCC[C@@H]3N)nc21	1510	4.18	1.3	3.36	1680	5.43	1.83	5.05	1420	2.82
COc1ccc(C2=NN(C(C)=O)C(c3cn(-c4ccccc4)nc3-c3ccc(Cl)cc3)C2)cc1 (stereo not given)	> 100000	> 100	> 100	> 100			30.7	> 100	> 100000	> 100
COc1ccc([N+](=O)[O-])c(S(=O)(=O)c2ccc(Cl)cc2)n1	3020	> 100	17.3	33.8	2320	6.51	2.51	7.18	1750	3.66
COC1=CC(c2ccc[nH]2)=N/C1=C\c1[nH]c(C)c(C(=O)CCCCC(=O)Nc2ccccc2)c1C	1430	2.74	1.15	2.43	1560	3.96	4.79	12.6	1790	3.74
COc1ccc(/C=C/c2n[nH]c3ccc(N4CCOC4=O)cc23)cc1	2540	> 100	3.22	11.2	5060	> 100	3.76	> 100	3200	38.6
NCCNC(=S)S		95.1		> 100		> 100		> 100		> 100
COc1cc(-n2cc(-c3ccc(Cl)cc3)[nH]c2=O)cc(OC)c1OC	> 100000	> 100	16.4	51.2	25900	62.9	15.2	35.3	88400	> 100
COc1cc(C(=O)c2cc3c(cc2C)OCO3)cc(OC)c1OC	51	> 100	0.141	> 100	830	> 100	0.322	> 100		
NS(=O)(=O)c1ccc(N2N=C3c4ccccc4CC3C2c2ccc(Cl)cc2)cc1 (stereo not given)	10600	> 100	7.17	22.6	9770	30.6	6.28	24.9	16100	37.2
COC1=CC(c2ccc[nH]2)=N/C1=C\c1ccc[nH]1	273	> 32.7	0.158	13.6	316	13.3	0.192	0.712	73.7	4.24
CSc1nc2sc3cc(Cl)ccc3n2c(=N)c1C#N	> 52400	> 100	42.2	> 100	8900	> 100	6.15	24	> 100000	> 100
O=C(/C=C\c1ccc(Cl)cc1Cl)c1cccs1		> 100		35.2				34.6		36.2
